Assay results taken from US7361643B2, “Methods for inhibiting angiogenesis” (University of Puerto Rico, priority 2000, dated 2008).

System: Factor VIII:C
Test: Factor VIII:C level by enzyme-linked immunoassay (ELISA)
Type: cell-based, bovine
Settings: 1 μg/ml tunicamycin
Method: In conducting ELISA, 96-well microtiter EIA plates, available from Corning Inc., Corning, N.Y., were coated overnight at 4° C. with 50 μl mouse monoclonal anti-Factor VIII:C antibody (i.e., IgG1k which is commercially available from Molecular Biochemicals (previously known as “Boehringer-Mannheim”), Indianapolis, Ind. (diluted 1:500) in 100 mM sodium carbonate buffer, pH 9.2. Blank wells were coated similarly with 0.25 μg of bovine serum albumin (BSA). The plates were washed three times 50 μl each wash with 50 mM Tris-HCl, pH 7.5 containing 150 mM NaCl and 0.5% (v/v) Tween-20 (TBST), available from Bio-Rad Laboratories, Richmond, Calif. and incubated at 37° C. for one hour with 50 μl conditioned media or cell lysates. The cell lysates were obtained by incubating for 20 minutes with 1 ml of ice-cold 20 mM TRIS-HCL, pH 8.0 buffer containing 150 mM NaCl, 1% (v/v) NP-40 and 1 μg/ml aprotinin. At the end of the incubation, the plates were washed three times with TBST, as above, and incubated at 37° C. for another hour with 50 μl of 1:500 diluted monoclonal anti-Factor VIII:C antibody. […] The absorbance was read at approximately 405 nm after 30 minutes by using an EIA microplate reader, Model 2550 with a 405 nm filter, both available from Bio-Rad Laboratories, Richmond, Calif. […]

Substance: tunicamycin
- time from which Factor VIII:C level started increasing: ≥ 32 h
- level of immunopositive Factor VIII:C versus controls (conditioned media and cell lysates): high level
